Assay results from ChEMBL document CHEMBL4630909 (2021).

Key:
[1] = target: 5-hydroxytryptamine receptor 6 (Homo sapiens) (UniProt P50406); details: Compound concentration 10.0 uM
[2] = target: ATPase family AAA domain-containing protein 2B (Homo sapiens, UniProt Q9ULI0); assay: ATAD2B DiscoverX BROMOscan
[3] = target: Nucleosome-remodeling factor subunit BPTF (Homo sapiens, UniProt Q12830); assay: FALZ DiscoverX BROMOscan
[4] = target: 5-hydroxytryptamine receptor 2C (Homo sapiens) (UniProt P28335); details: Compound concentration 10.0 uM
[5] = target: 5-hydroxytryptamine receptor 5A (Homo sapiens) (UniProt P47898); details: Compound concentration 10.0 uM
[6] = target: Bromodomain adjacent to zinc finger domain protein 2A (Homo sapiens, UniProt Q9UIF9); assay: BAZ2A DiscoverX BROMOscan
[7] = target: Bromodomain and PHD finger-containing protein 3 (Homo sapiens, UniProt Q9ULD4); assay: BRPF3 DiscoverX BROMOscan
[8] = target: Bromodomain-containing protein 9 (Homo sapiens, UniProt Q9H8M2); assay: BRD9 DiscoverX BROMOscan
[9] = target: T1, D(1A) dopamine receptor (Homo sapiens, UniProt P21728); details: Compound concentration 10.0 uM
[10] = target: GABA-A receptor; anion channel; assay: (§1) Cross screening panel; assay type: protein-complex assay
[11] = target: Histamine H2 receptor (Homo sapiens) (UniProt P25021); details: Compound concentration 10.0 uM
[12] = target: Bromodomain-containing protein 7 (Homo sapiens, UniProt Q9NPI1); assay: BRD7 DiscoverX BROMOscan
[13] = target: Transcription initiation factor TFIID subunit 1 (Homo sapiens, UniProt P21675); assay: TAF1(2) DiscoverX BROMOscan
[14] = target: Beta-1 adrenergic receptor (Homo sapiens) (UniProt P08588); details: Compound concentration 10.0 uM
[15] = target: Transcription initiation factor TFIID subunit 1-like (Homo sapiens, UniProt Q8IZX4); assay: TAF1L(2) DiscoverX BROMOscan
[16] = target: Alpha-2C adrenergic receptor (Homo sapiens) (UniProt P18825); details: Compound concentration 10.0 uM
[17] = target: T2, GABA-A receptor; anion channel (Rattus norvegicus) (UniProt O09028+P15431+P18506+P18508+P19969+P20236+P23574+P23576+P28471+P28473+P30191+P62813+P63079+P63138+Q91ZM7+Q9ES14); details: Compound concentration 10.0 uM
[18] = target: Chromatin remodeling regulator CECR2 (Homo sapiens, UniProt Q9BXF3); assay: CECR2 DiscoverX BROMOscan
[19] = target: Bromodomain-containing protein 8 (Homo sapiens, UniProt Q9H0E9); assay: BRD8(1) DiscoverX BROMOscan
[20] = target: Histone acetyltransferase p300 (Homo sapiens, UniProt Q09472); assay: EP300 DiscoverX BROMOscan
[21] = target: GABA-A receptor; anion channel; assay: as §1; assay type: protein-complex assay; remark: listed apart in the source
[22] = target: Voltage-gated potassium channel, IKs; KCNQ1(Kv7.1)/KCNE1(MinK) (Homo sapiens, UniProt P15382+P51787); assay: as §1; assay type: protein-complex assay
[23] = target: Beta-3 adrenergic receptor (Homo sapiens) (UniProt P13945); details: Compound concentration 10.0 uM
[24] = target: Beta-2 adrenergic receptor (Homo sapiens, UniProt P07550); details: Compound concentration 10.0 uM
[25] = target: ATPase family AAA domain-containing protein 2 (Homo sapiens, UniProt Q6PL18); assay: ATAD2A DiscoverX BROMOscan
[26] = target: Kappa-type opioid receptor (Homo sapiens, UniProt P41145); details: Compound concentration 10.0 uM
[27] = target: Bromodomain and WD repeat-containing protein 1 (Homo sapiens, UniProt Q9NSI6); assay: WDR9(2) DiscoverX BROMOscan
[28] = target: Peregrin (Homo sapiens, UniProt P55201); assay: BRPF1 DiscoverX BROMOscan
[29] = target: T2, GABA-A receptor; anion channel (Rattus norvegicus); details: Compound concentration 10.0 uM; remark: listed apart in the source
[30] = target: D(1B) dopamine receptor (Homo sapiens) (UniProt P21918); details: Compound concentration 10.0 uM
[31] = target: D(4) dopamine receptor (Homo sapiens) (UniProt P21917); details: Compound concentration 10.0 uM
[32] = target: Mu-type opioid receptor (Homo sapiens, UniProt P35372); assay: as §1
[33] = target: Nuclear receptor subfamily 1 group I member 2 (Homo sapiens, UniProt O75469); assay: as §1
[34] = target: Phosphatidylinositol 4,5-bisphosphate 3-kinase catalytic subunit gamma isoform (Homo sapiens, UniProt P48736); assay: as §1
[35] = target: Vasopressin V1a receptor (Homo sapiens, UniProt P37288); assay: as §1
[36] = target: Amine oxidase [flavin-containing] A (Homo sapiens, UniProt P21397); assay: as §1
[37] = target: 5-hydroxytryptamine receptor 3A (Homo sapiens, UniProt P46098); assay: as §1
[38] = target: Voltage-dependent L-type calcium channel subunit alpha-1C (Homo sapiens, UniProt Q13936); assay: as §1
[39] = target: Alpha-2C adrenergic receptor (Homo sapiens, UniProt P18825); assay: as §1
[40] = target: Aryl hydrocarbon receptor (Homo sapiens, UniProt P35869); assay: as §1
[41] = target: 3',5'-cyclic-AMP phosphodiesterase 4B (Homo sapiens, UniProt Q07343); assay: as §1
[42] = target: Sodium-dependent serotonin transporter (Homo sapiens, UniProt P31645); assay: as §1
[43] = target: 5-hydroxytryptamine receptor 2A (Homo sapiens, UniProt P28223); assay: as §1
[44] = target: Potassium voltage-gated channel subfamily A member 5 (Homo sapiens, UniProt P22460); assay: as §1
[45] = target: Muscarinic acetylcholine receptor M1 (Homo sapiens, UniProt P11229); assay: as §1
[46] = target: T1, D(1A) dopamine receptor; assay: as §1
[47] = target: 5-hydroxytryptamine receptor 2C (Homo sapiens, UniProt P28335); assay: as §1
[48] = target: Cannabinoid receptor 2 (Homo sapiens, UniProt P34972); assay: as §1
[49] = target: Adenosine receptor A2a (Homo sapiens, UniProt P29274); assay: as §1
[50] = target: Solute carrier organic anion transporter family member 1B1 (Homo sapiens, UniProt Q9Y6L6); assay: as §1
[51] = target: Protein polybromo-1 (Homo sapiens, UniProt Q86U86); assay: PBRM1(2) DiscoverX BROMOscan

5-hydroxytryptamine receptor 3A, sequence (P46098 whole entry): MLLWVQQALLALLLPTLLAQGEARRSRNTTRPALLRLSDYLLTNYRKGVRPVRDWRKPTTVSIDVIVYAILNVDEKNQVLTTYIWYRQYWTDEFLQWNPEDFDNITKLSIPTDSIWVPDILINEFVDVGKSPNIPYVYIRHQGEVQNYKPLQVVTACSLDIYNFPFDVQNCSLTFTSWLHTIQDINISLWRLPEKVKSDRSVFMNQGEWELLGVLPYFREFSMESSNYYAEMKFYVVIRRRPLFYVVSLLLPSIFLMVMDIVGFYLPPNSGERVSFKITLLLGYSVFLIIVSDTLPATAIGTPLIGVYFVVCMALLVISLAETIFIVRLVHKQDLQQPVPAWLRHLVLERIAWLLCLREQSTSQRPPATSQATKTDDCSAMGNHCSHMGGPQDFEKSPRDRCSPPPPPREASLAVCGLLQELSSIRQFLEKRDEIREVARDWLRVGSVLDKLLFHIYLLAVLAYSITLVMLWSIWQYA
T1 sequence (P21728 whole entry): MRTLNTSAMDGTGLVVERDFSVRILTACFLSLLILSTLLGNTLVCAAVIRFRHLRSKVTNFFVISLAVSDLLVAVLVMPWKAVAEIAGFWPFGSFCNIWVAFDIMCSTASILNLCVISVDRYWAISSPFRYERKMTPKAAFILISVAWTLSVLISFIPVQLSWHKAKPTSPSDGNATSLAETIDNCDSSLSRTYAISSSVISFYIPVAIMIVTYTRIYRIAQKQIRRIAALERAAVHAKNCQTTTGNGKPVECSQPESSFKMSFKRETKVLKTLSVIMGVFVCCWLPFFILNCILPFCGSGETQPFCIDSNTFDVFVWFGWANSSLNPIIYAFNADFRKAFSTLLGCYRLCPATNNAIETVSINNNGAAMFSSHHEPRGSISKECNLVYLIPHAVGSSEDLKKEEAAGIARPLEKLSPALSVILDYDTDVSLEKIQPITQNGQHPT
Muscarinic acetylcholine receptor M1, sequence (P11229 whole entry): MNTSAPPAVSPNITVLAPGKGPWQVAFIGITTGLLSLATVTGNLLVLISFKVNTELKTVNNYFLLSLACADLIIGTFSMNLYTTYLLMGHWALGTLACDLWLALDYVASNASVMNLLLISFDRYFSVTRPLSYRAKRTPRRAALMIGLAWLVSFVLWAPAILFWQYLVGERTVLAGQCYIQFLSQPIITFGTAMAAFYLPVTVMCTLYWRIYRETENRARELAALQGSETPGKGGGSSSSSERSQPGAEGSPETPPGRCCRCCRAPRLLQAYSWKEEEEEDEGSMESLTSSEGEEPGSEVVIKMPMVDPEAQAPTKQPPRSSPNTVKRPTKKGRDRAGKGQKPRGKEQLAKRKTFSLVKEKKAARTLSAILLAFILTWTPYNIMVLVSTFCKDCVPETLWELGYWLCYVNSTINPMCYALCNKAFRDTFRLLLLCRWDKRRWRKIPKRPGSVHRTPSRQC
5-hydroxytryptamine receptor 2C, sequence (P28335 whole entry): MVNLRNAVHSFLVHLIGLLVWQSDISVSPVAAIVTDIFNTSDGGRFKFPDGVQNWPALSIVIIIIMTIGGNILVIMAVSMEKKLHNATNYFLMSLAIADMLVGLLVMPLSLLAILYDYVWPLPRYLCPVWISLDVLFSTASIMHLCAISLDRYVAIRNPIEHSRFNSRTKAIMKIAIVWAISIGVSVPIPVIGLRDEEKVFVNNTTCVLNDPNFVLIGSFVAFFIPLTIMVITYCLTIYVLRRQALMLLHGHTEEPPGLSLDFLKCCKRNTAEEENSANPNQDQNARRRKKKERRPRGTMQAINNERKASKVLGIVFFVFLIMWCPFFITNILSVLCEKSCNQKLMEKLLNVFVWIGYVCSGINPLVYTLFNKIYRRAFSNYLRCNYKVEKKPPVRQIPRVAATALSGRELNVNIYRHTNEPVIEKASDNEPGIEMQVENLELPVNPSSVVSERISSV
5-hydroxytryptamine receptor 2A, sequence (P28223 whole entry): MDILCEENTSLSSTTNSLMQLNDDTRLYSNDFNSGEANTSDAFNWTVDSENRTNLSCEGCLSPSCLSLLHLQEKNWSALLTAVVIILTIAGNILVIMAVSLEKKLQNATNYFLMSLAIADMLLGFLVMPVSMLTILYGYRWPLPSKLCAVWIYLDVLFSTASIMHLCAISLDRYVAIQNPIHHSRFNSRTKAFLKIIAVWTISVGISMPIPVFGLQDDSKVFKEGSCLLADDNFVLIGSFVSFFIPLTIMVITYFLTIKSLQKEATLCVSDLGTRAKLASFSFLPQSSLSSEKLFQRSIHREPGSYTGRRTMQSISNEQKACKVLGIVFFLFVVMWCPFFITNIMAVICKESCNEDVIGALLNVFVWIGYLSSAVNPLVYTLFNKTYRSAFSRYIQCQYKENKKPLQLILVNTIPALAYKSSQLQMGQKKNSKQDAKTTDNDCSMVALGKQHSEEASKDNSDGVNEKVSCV
Histone acetyltransferase p300, sequence (Q09472 whole entry): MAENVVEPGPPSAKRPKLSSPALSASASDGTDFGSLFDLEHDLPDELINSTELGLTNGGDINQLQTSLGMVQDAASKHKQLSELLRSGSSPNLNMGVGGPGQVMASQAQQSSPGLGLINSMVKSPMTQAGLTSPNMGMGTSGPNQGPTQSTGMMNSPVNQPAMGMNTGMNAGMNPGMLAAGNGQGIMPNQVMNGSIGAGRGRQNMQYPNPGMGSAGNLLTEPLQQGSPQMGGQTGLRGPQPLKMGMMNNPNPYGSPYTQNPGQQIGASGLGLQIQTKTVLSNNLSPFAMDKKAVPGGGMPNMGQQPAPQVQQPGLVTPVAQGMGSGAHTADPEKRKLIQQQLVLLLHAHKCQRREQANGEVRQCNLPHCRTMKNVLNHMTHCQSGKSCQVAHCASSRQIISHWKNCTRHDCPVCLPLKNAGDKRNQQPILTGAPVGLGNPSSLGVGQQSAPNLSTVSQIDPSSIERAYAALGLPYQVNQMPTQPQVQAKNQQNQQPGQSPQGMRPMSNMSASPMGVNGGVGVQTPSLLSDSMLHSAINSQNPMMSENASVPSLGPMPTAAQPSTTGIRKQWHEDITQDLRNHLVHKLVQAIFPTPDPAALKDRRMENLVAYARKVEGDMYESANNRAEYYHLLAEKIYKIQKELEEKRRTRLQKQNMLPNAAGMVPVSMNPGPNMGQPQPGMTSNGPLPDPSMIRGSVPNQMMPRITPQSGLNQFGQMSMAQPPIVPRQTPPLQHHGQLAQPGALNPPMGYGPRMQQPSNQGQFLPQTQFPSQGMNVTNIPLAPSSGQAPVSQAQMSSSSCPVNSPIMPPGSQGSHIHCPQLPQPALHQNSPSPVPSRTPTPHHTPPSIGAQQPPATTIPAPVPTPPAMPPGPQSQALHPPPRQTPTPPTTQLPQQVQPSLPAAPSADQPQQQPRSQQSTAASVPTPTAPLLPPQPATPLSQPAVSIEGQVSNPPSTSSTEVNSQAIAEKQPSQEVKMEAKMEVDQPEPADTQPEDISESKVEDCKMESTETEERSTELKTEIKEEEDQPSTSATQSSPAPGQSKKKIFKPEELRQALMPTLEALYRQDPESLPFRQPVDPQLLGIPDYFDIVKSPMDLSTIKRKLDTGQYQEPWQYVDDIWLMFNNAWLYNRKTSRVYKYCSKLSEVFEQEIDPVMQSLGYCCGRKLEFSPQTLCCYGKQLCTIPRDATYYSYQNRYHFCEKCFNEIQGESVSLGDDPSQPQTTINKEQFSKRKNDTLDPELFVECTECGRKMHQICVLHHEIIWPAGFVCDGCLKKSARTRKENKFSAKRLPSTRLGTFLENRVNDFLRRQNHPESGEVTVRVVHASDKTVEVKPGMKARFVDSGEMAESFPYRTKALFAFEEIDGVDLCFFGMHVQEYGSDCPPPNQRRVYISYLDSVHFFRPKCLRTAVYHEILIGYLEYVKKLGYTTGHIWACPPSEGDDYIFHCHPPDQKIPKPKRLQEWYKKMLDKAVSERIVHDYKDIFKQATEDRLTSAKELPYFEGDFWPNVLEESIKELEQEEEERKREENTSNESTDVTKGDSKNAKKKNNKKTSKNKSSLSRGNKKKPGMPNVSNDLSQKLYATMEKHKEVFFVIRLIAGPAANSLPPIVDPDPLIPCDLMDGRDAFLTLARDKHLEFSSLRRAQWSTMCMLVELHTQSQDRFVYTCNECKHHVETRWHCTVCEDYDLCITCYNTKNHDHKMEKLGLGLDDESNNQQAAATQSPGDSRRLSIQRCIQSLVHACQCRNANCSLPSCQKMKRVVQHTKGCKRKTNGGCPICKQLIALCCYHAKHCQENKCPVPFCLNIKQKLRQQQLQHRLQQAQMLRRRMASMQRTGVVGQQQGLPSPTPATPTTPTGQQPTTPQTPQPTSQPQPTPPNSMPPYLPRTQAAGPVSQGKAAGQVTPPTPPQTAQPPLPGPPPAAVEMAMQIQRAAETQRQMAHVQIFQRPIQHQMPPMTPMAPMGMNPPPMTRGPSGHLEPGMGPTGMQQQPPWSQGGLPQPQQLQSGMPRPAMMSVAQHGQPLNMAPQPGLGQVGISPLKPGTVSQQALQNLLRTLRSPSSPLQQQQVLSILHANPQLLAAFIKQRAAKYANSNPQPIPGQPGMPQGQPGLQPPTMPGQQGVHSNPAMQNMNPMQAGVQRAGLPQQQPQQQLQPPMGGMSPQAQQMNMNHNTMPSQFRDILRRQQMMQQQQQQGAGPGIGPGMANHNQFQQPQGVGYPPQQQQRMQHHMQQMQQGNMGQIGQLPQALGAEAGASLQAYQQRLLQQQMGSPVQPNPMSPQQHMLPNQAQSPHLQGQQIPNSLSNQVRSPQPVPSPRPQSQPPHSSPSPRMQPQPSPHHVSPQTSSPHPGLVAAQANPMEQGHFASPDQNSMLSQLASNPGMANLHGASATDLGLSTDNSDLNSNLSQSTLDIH
5-hydroxytryptamine receptor 2C (Homo sapiens), sequence (P28335 whole entry): as the sequence (P28335 whole entry) above

Compound: CNC(=O)c1cc(C(=O)NC2CC2)cn(Cc2ccccc2)c1=O [GSK620]
- inhibition [1]: 10.9%
- Kd [2]: 31.6 µM
- Kd [3]: 25.1 µM
- inhibition [4]: 32.1%
- inhibition [5]: -4.41%
- Kd [6]: 31.6 µM
- Kd [7]: 31.6 µM
- Kd [8]: 31.6 µM
- inhibition [9]: 6.94%
- pEC50 [10]: < 4
- inhibition [11]: -9.14%
- Kd [12]: 31.6 µM
- Kd [13]: 3.98 µM
- inhibition [14]: -6.19%
- Kd [15]: 25.1 µM
- inhibition [16]: 0.69%
- inhibition [17]: 28.2%
- Kd [18]: 31.6 µM
- Kd [19]: 31.6 µM
- Kd [20]: 7.94 µM
- pEC50 [21]: < 4
- pIC50 [21]: < 4
- IC50 [22]: > 25.1 µM
- inhibition [23]: 18.6%
- inhibition [24]: 16.5%
- Kd [25]: 31.6 µM
- inhibition [26]: 39.9%
- Kd [27]: 31.6 µM
- Kd [28]: 31.6 µM
- inhibition [29]: 8.55%
- inhibition [30]: 18.6%
- inhibition [31]: 6.96%
- EC50 [32]: > 100 µM
- EC50 [33]: > 50.1 µM
- IC50 [34]: > 31.6 µM
- IC50 [35]: > 50.1 µM
- IC50 [36]: > 100 µM
- EC50 [37]: > 50.1 µM
- IC50 [37]: > 50.1 µM
- IC50 [38]: 79.4 µM
- EC50 [39]: > 100 µM
- EC50 [40]: > 100 µM
- IC50 [41]: > 100 µM
- IC50 [42]: > 100 µM
- EC50 [43]: > 25.1 µM
- IC50 [43]: > 25.1 µM
- IC50 [44]: > 50.1 µM
- EC50 [45]: > 50.1 µM
- IC50 [45]: > 50.1 µM
- IC50 [46]: > 100 µM
- EC50 [47]: > 25.1 µM
- IC50 [47]: > 25.1 µM
- EC50 [48]: > 10 µM
- EC50 [49]: > 100 µM
- IC50 [50]: > 50.1 µM
- Kd [51]: 31.6 µM
